Experimental data taken from article PMC9325671, “Targeting LIPA independent of its lipase activity is a therapeutic strategy in solid tumors via induction of endoplasmic reticulum stress” (Nature Cancer, 2022).

Target: T1, lysosomal acid lipase (LAL, LIPA) (Homo sapiens, UniProt P38571)
T1 construct: endogenous LAL in SUM-159 cells (CETSA); WT-LIPA reconstituted in LIPA KO cells (pulldown)
T1 sequence (P38571 77-399): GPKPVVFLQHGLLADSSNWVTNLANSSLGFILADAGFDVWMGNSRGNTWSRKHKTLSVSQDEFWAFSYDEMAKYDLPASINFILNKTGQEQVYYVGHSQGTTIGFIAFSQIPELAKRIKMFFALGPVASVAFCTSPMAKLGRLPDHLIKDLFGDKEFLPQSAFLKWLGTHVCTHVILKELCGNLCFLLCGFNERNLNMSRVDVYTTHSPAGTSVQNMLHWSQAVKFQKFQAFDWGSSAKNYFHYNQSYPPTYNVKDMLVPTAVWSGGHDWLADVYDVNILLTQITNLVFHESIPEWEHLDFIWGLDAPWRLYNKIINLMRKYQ
Assay: cellular thermal shift assay ([…] ERX-41) in SUM-159 cells; pulldown from lysates with biotinylated ERX-41
Type: cell-based

CC(C)COc1cc(C(=O)Nc2ccc(C(=O)N[C@H]3CC[C@H](C)CC3)cc2OCC(C)C)ccc1NC(=O)c1ccc([N+](=O)[O-])c(OCCO)c1 [ERX-41]
cellular thermal shift assay (10 uM ERX-41) in SUM-159 cells; pulldown from lysa: ERX-41 was able to stabilize LAL within the cell and shifted thermal sensitivity, suggesting that ERX-41 binds to LAL
